Experimental data as given in ChEMBL document CHEMBL4311972, “Discovery of a benzothiophene-flavonol halting miltefosine and antimonial drug resistance in Leishmania parasites through the application of medicinal chemistry, screening and genomics” (Eur J Med Chem, 2019).

Columns and labels:
CYP2C19 = CYP2C19 (Homo sapiens, UniProt P33261); assay: Inhibition of human microsomal CYP2C19 expressed in baculovirus infected insect cells at 10 uM using luciferin-H EGE as substrate preincubated with enzyme/substrate mixture for 30 mins followed by further incubation with NADPH for 30 mins by CYP450 luciferase Glo assay relative to control; type: ADME; details: probe luciferin-H EGE
CYP1A2 = molecular target: T1, CYP1A2 (Homo sapiens, UniProt P05177); assay: Inhibition of human microsomal CYP1A2 expressed in baculovirus infected insect cells at 10 uM using luciferin-1A2 as substrate preincubated with enzyme/substrate mixture for 30 mins followed by further incubation with NADPH for 30 mins by CYP450 luciferase Glo assay relative to control; type: ADME; details: probe luciferin-1A2
T1 sequence (P05177 whole entry): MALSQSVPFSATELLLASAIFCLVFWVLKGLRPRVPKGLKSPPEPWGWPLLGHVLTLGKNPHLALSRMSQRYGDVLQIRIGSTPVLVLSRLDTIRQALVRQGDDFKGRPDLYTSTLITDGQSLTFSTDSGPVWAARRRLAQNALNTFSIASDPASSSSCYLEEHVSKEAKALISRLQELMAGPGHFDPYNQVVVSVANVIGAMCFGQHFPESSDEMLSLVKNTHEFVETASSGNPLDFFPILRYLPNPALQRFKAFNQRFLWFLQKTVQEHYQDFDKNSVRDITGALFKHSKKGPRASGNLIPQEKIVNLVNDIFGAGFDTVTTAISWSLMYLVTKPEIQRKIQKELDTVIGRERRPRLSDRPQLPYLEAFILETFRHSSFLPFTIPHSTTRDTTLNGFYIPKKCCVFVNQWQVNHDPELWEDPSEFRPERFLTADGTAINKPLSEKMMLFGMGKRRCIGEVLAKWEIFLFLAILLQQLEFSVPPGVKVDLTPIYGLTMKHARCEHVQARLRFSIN

[1] = Cytotoxicity against human THP1 cells by MTT assay; type: cell-based, THP-1
786-0 = assay: Mitochondrial toxicity in human 786-0 cells at 10 uM incubated with compound for 6 hrs followed by incubation with MitoTracker Red chloromethyl-X-rosamine dye for 45 mins by imaging analysis; type: cell-based; details: 786-0, 6 h
hERG (KCNH2) = hERG (KCNH2) (Homo sapiens, UniProt Q12809); assay: Inhibition of human ERG at 10 uM incubated for 2 hrs by fluorescence polarization assay relative to control
Trypanosoma brucei = assay: Antitrypanosomal activity against Trypanosoma brucei bloodstream form assessed as parasite growth inhibition incubated for 72 hrs by resazurin dye based assay; type: functional, organism-based
CYP3A4 = CYP3A4 (Homo sapiens, UniProt P08684); assay: Inhibition of human microsomal CYP3A4 expressed in baculovirus infected insect cells at 10 uM using luciferin-IPA as substrate preincubated with enzyme/substrate mixture for 30 mins followed by further incubation with NADPH for 30 mins by CYP450 luciferase Glo assay relative to control; type: ADME; details: probe luciferin-IPA
CYP2D6 = CYP2D6 (Homo sapiens, UniProt P10635); assay: Inhibition of human microsomal CYP2D6 expressed in baculovirus infected insect cells at 10 uM using luciferin-ME as substrate preincubated with enzyme/substrate mixture for 30 mins followed by further incubation with NADPH for 30 mins by CYP450 luciferase Glo assay relative to control; type: ADME; details: probe luciferin-ME
Leishmania infantum = assay: Antileishmanial activity against luciferase expressing intracellular amastigote stage of Leishmania infantum infected in human THP1 cells assessed as parasite growth inhibition measured after 48 to 72 hrs by steady-glo luciferase assay; type: functional, organism-based
CYP2C9 = CYP2C9 (Homo sapiens, UniProt P11712); assay: Inhibition of human microsomal CYP2C9 expressed in baculovirus infected insect cells at 10 uM using luciferin-H as substrate preincubated with enzyme/substrate mixture for 30 mins followed by further incubation with NADPH for 30 mins by CYP450 luciferase Glo assay relative to control; type: ADME; details: probe luciferin-H
[2] = Cytotoxicity against human A549 cells assessed as cell growth at […] incubated for 48 hrs by Celltiter-Glo luminescence assay relative to control; type: cell-based; design: dose or concentration left out as unconfirmed; details: read-out: Activity
[3] = Trypanosoma brucei, 72 h, read-out: EC50

Sequence of hERG (KCNH2) (Q12809 whole entry): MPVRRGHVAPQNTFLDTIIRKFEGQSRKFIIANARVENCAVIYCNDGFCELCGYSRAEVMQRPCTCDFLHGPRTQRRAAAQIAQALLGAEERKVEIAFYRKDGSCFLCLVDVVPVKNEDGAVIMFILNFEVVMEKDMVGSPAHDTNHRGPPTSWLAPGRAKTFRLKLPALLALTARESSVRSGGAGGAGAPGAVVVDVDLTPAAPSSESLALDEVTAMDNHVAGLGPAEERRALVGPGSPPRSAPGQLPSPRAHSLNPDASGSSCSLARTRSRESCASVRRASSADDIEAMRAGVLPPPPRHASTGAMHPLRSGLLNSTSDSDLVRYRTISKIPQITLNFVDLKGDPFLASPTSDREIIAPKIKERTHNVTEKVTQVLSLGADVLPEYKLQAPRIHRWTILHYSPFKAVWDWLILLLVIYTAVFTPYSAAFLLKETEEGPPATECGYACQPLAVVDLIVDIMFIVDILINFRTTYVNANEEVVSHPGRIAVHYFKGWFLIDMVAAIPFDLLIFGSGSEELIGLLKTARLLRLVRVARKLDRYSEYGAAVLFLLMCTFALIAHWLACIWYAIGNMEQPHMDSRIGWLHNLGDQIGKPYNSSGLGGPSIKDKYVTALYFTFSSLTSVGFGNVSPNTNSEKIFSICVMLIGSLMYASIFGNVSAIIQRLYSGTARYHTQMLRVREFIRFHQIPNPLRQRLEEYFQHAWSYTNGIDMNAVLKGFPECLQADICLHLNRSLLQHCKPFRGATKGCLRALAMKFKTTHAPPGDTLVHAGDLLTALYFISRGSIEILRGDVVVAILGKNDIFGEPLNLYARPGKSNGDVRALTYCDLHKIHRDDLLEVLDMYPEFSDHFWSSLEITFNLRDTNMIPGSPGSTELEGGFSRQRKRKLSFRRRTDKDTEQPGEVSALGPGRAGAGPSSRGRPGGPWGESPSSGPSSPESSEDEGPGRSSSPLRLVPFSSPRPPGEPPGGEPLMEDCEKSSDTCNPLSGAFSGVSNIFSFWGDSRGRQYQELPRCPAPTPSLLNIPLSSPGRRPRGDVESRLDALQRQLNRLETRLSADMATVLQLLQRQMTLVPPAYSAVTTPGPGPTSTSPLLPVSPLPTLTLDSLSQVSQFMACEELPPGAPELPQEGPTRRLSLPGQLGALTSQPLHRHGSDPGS
Sequence of CYP2C9 (P11712 whole entry): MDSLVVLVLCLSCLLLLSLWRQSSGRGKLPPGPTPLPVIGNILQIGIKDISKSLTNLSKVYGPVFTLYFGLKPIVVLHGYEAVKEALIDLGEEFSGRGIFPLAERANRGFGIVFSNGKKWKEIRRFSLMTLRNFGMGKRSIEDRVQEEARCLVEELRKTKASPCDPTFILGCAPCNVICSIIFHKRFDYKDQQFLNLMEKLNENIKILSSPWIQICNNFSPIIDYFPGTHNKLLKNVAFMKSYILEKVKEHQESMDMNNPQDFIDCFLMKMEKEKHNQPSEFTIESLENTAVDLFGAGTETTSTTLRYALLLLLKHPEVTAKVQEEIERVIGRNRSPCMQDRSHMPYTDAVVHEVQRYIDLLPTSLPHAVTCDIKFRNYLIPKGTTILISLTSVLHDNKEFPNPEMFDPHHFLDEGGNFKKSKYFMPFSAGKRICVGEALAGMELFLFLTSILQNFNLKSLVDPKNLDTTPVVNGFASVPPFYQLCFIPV
Sequence of CYP3A4 (P08684 whole entry): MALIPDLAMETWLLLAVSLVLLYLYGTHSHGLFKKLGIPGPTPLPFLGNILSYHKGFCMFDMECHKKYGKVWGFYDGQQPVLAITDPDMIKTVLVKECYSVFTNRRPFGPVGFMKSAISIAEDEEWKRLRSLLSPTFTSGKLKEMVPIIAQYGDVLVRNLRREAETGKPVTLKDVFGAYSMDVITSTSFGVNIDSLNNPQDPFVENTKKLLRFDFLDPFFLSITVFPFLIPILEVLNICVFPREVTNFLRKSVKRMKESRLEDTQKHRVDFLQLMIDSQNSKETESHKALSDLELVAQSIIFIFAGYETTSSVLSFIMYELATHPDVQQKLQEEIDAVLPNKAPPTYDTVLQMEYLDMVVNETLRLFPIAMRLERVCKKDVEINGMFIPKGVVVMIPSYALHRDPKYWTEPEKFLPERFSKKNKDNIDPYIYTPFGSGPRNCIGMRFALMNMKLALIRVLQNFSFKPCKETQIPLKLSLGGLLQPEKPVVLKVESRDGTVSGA
Sequence of CYP2D6 (P10635 whole entry): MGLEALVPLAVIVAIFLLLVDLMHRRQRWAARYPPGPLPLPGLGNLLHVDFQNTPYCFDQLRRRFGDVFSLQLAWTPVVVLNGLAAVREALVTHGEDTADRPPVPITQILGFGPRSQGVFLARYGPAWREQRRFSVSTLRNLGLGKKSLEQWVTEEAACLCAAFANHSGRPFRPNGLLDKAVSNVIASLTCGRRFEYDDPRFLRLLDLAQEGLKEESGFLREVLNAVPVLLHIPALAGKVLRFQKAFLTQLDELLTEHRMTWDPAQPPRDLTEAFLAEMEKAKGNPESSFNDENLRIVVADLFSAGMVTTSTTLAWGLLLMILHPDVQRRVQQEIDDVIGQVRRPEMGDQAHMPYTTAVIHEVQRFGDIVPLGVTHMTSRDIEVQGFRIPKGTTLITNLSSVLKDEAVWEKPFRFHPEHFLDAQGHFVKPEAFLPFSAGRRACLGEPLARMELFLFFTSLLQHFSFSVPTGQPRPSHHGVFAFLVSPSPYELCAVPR
Sequence of CYP2C19 (P33261 whole entry): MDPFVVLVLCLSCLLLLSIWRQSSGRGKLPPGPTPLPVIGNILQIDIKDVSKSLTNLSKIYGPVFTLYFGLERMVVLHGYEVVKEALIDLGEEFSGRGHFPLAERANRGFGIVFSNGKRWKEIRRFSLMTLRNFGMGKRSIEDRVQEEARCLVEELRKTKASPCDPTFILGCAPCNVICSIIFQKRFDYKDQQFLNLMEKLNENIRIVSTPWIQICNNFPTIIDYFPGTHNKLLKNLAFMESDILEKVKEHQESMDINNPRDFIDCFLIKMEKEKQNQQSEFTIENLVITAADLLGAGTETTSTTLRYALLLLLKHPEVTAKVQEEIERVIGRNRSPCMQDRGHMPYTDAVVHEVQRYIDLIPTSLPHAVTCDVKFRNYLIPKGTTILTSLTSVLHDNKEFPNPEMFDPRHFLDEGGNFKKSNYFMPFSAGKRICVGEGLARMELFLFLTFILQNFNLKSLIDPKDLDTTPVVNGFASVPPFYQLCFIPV

Compound	inhibition at 0.5 h, 10 µM (CYP2C19) [%]	inhibition at 0.5 h, 10 µM (CYP1A2) [%]	CC50 [1] [µM]	Activity (786-0) [%]	inhibition at 2 h, 10 µM (hERG (KCNH2)) [%]	EC50 (Trypanosoma brucei; [3]) [µM]	inhibition at 0.5 h, 10 µM (CYP3A4) [%]	inhibition at 0.5 h, 10 µM (CYP2D6) [%]	EC50 (Leishmania infantum)	inhibition at 0.5 h, 10 µM (CYP2C9) [%]	viability at 48 h [2] [%]	EC50 (Trypanosoma brucei)
O=c1c(O)c(-c2csc3ccccc23)oc2cc(Cl)ccc12	-6.35	57.5	50 to 100	81.33	16.3	5.34	-5.72	-3.33	Not Active	5.82	-49.6	
Cc1ccc2oc(-c3csc4ccccc34)c(O)c(=O)c2c1	22.4	81.3	< 12.5	-21.98	-21.6	2	-19.3	16	Not Active	19.4	129	
COc1ccc2oc(-c3ccc4ncccc4c3)c(O)c(=O)c2c1	-8.24	27.4	> 100	-7.05	16.1		-3.86	-15.1		-3.36	101	Not Active
COc1ccc2c(=O)c(O)c(-c3csc4ccccc34)oc2c1	62.3	90	25 to 50	-22.67	-4.35	3.1	5.81	20.3	Not Active	28.1	53.9	
CCOc1ccc2c(=O)c(O)c(-c3csc4ccccc34)oc2c1	46.1	81.8	12.5 to 25	29.51	-3.21		11.5	24.7	Not Active	23	11.9	Not Active
COc1ccc2c(=O)c(O)c(-c3ccco3)oc2c1	68.7	103	> 100	-1.6	-3.37		-0.65	23.4		46.3	102	Not Active
COc1ccc2oc(-c3cn(C)c4ccccc34)c(O)c(=O)c2c1	-1.53	89.2		-1.87	12.7		22	3.57		-0.02	18.6	
O=c1c(O)c(-c2ccco2)oc2ccc(O)cc12	73.2	96.7	20 to 50	4.3	6.43		7.49	36.2		47.6	104	Not Active
COc1ccc2oc(-c3ccco3)c(O)c(=O)c2c1	54.3	104	50 to 100	-0.99	-1.31		14.1	50.8		71.3	106	Not Active
COc1ccc2oc(-c3csc4ccccc34)c(OC(=O)C(C)(C)C)c(=O)c2c1	31.8	51.6	12.5 to 25	-47.48	-23.8	3.7	50.1	11.8	Not Active	33.6	133	
O=c1c(O)c(-c2csc3ccccc23)oc2ccccc12	31.3	97.7	< 25	-22.23	-22.7	2.6	-1.84	6.45	Not Active	28.9	50.3	
O=c1c(O)c(-c2ccco2)oc2cc(O)ccc12	65.4	93.5	> 100	-1.18	18.7		14.1	28.4		83.7	108	Not Active
Cc1csc(-c2oc3cccc(O)c3c(=O)c2O)c1	27.3	106	> 100	5.8	34.2		6.11	10.9		71.8	56.8	Not Active
Cc1ccsc1-c1oc2cc(O)ccc2c(=O)c1O	57.9	108	12.5 to 20	-3.38	-1.79		73.8	24.1		43.8	83.4	Not Active
O=c1c(O)c(-c2csc3ccccc23)oc2cc(F)ccc12	24.2	80.6	25 to 50	-22.29	11.6		9.54	23	Not Active	26.5	124	
